According to patent US6737383B1, “Herbicidal oxadiazolidines” (priority 1999, dated 2004):

Legend:
cocklebur = test: Test B pre/postemergence cocklebur; type: in vivo, Xanthium strumarium; conditions: for Cocklebur plant response rating: scale of 0 to 10 where 0 is no effect and 10 is complete control
In short: (§1)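 Response is a visual 0-to-10 score relative to untreated plants, where 0 means no effect and 10 means complete control, taken twelve to sixteen days after application. Treatments went onto soil at planting and onto foliage of 1- to 4-leaf plants, using a surfactant-containing non-phytotoxic solvent.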

rice = test: Test B flood test rice; type: in vivo, Oryza sativa
In short: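 Read-out is a visual response score from 0 (no effect) to 10 (complete control), assigned by comparison with untreated controls. Treatment was applied at the 2-leaf stage, and plants stayed in the greenhouse for twelve to sixteen days before scoring.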

wheat = test: Test B pre/postemergence wheat; type: in vivo, Triticum aestivum; conditions: for Wheat plant response rating: scale of 0 to 10 where 0 is no effect and 10 is complete control
In short: as §1

bedstraw = test: Test B pre/postemergence bedstraw; type: in vivo, Galium aparine
In short: as §1

blackgrass = test: Test B pre/postemergence blackgrass; type: in vivo, Alopecurus myosuroides
In short: as §1

surinam grass = test: Test B pre/postemergence surinam grass; type: in vivo, Brachiaria decumbens
In short: as §1

giant foxtail = test: Test B pre/postemergence giant foxtail; type: in vivo, Setaria faberii; conditions: for Giant foxtail plant response rating: scale of 0 to 10 where 0 is no effect and 10 is complete control
In short: as §1

sugar beet = test: Test B pre/postemergence sugar beet; type: in vivo, Beta vulgaris; conditions: for Sugarbeets plant response rating: scale of 0 to 10 where 0 is no effect and 10 is complete control
In short: as §1

[1] = Postemergence, Rate 125 g/ha, scale 0 to 10, 0 is no effect, 10 is complete control
[2] = Preemergence, Rate 62 g/ha, scale 0 to 10 (0 no effect, 10 complete control)
[3] = Rate 500 g/ha, Postemergence, scale 0 to 10, 0 no effect, 10 complete control
[4] = Preemergence, Rate 250 g/ha, scale of 0 to 10 where 0 is no effect and 10 is complete control
[5] = Preemergence, Rate 500 g/ha, scale of 0 to 10 where 0 is no effect and 10 is complete control
[6] = Rate 62 g/ha, Postemergence, scale of 0 to 10 where 0 is no effect and 10 is complete control
[7] = Rate 250 g/ha, Postemergence, scale of 0 to 10 where 0 is no effect and 10 is complete control

`CCC(CC)n1c(=O)on(C(=O)N(c2ccc(F)cc2)C(C)C)c1=O` [Compound 358] was tested, and the “Plant response rating, Cocklebur” value (cocklebur; [1]) was 0, the “Plant response rating, Cocklebur” value (cocklebur; [2]) was 0 and the “Cocklebur plant response rating (0 to 10 scale)” value (cocklebur; Preemergence, Rate 125 g/ha) was 0. For the same compound, the “Cocklebur plant response rating” value (cocklebur; Preemergence, Rate 250 g/ha) was 0, the “Cocklebur plant response rating” value (cocklebur; Preemergence, Rate 500 g/ha) was 0 and the “Cocklebur plant response rating” value (cocklebur; Rate 62 g/ha, Postemergence) was 0. For the same compound, the “Plant response rating, Cocklebur” value (cocklebur; [3]) was 0, the “Plant response rating, Rice” value (rice; Postemergence (flood test), Rate 125 g/ha, scale 0 to 10, 0 is no effect, 10 is complete control) was 0 and the “Rice plant response rating” value (rice; Rate 62 g/ha, Postemergence (flood test species), scale of 0 to 10 where 0 is no effect and 10 is complete control) was 0. The “Plant response rating, Rice (0 to 10 scale, 0 is no effect, 10 is complete control)” value (rice; Rate 62 g/ha, flood test species, Pre-emergence, visual evaluation after twelve to sixteen days) was 0, the “Rice plant response rating” value (rice; Rate 125 g/ha, Pre-emergence, flood test species, scale 0 to 10 where 0 is no effect and 10 is complete control) was 0 and the “Rice plant response rating” value (rice; Rate 250 g/ha, Pre-emergence, flood-test species, scale 0 to 10, 0 is no effect, 10 is complete control) was 0. For the same compound, the “Plant response rating, Rice” value (rice; Rate 500 g/ha, listed under Postemergence (flood test species), scale 0 to 10, 0 no effect, 10 complete control) was 0, the “Rice plant response rating” value (rice; Rate 500 g/ha, Pre-emergence, flood test species, scale 0 to 10 (0 no effect, 10 complete control)) was 8 and the “Plant response rating, Wheat” value (wheat; [1]) was 3. For the same compound, the “Plant response rating, Wheat” value (wheat; [2]) was 0, the “Wheat plant response rating (0 to 10 scale)” value (wheat; Preemergence, Rate 125 g/ha) was 0 and the “Wheat plant response rating” value (wheat; Preemergence, Rate 250 g/ha) was 1. The “Wheat plant response rating” value (wheat; Preemergence, Rate 500 g/ha) was 3, the “Wheat plant response rating” value (wheat; Rate 62 g/ha, Postemergence) was 2 and the “Plant response rating, Wheat” value (wheat; [3]) was 5. The “Plant response rating, Bedstraw” value (bedstraw; [1]) was 2, the “Plant response rating, Bedstraw” value (bedstraw; [2]) was 0 and the “Bedstraw plant response rating (0 to 10 scale)” value (bedstraw; Preemergence, Rate 125 g/ha) was 9. The “Bedstraw plant response rating” value (bedstraw; [4]) was 10, the “Bedstraw plant response rating” value (bedstraw; [5]) was 10 and the “Bedstraw plant response rating” value (bedstraw; [6]) was 0. The “Plant response rating, Bedstraw” value (bedstraw; [7]) was 3, the “Plant response rating, Bedstraw” value (bedstraw; [3]) was 6 and the “Plant response rating, Blackgrass” value (blackgrass; [1]) was 6. The “Plant response rating, Blackgrass” value (blackgrass; [2]) was 4, the “Blackgrass plant response rating (0 to 10 scale)” value (blackgrass; Preemergence, Rate 125 g/ha) was 8 and the “Blackgrass plant response rating” value (blackgrass; [4]) was 10. The “Blackgrass plant response rating” value (blackgrass; [5]) was 10, the “Blackgrass plant response rating” value (blackgrass; [6]) was 2 and the “Plant response rating, Blackgrass” value (blackgrass; [7]) was 8. The “Plant response rating, Blackgrass” value (blackgrass; [3]) was 8, the “Plant response rating, B. signalgrass” value (surinam grass; [1]) was 0 and the “Plant response rating, B. signalgrass” value (surinam grass; [2]) was 1. The “B. signalgrass plant response rating (0 to 10 scale, 0 is no effect, 10 is complete control)” value (surinam grass; Preemergence, Rate 125 g/ha) was 3, the “B. signalgrass plant response rating” value (surinam grass; [4]) was 5 and the “B. signalgrass plant response rating” value (surinam grass; [5]) was 7. For the same compound, the “B. signalgrass plant response rating” value (surinam grass; [6]) was 0, the “Plant response rating, B. signalgrass” value (surinam grass; [7]) was 1 and the “Plant response rating, B. signalgrass” value (surinam grass; [3]) was 2. For the same compound, the “Plant response rating, Giant foxtail” value (giant foxtail; [1]) was 8, the “Plant response rating, Giant foxtail” value (giant foxtail; [2]) was 10 and the “Giant foxtail plant response rating (0 to 10 scale)” value (giant foxtail; Preemergence, Rate 125 g/ha) was 10. The “Giant foxtail plant response rating” value (giant foxtail; Preemergence, Rate 250 g/ha) was 10, the “Giant foxtail plant response rating” value (giant foxtail; Preemergence, Rate 500 g/ha) was 10 and the “Giant foxtail plant response rating” value (giant foxtail; Rate 62 g/ha, Postemergence) was 3. The “Plant response rating, Giant foxtail” value (giant foxtail; [3]) was 8, the “Plant response rating, Sugarbeets” value (sugar beet; [1]) was 0 and the “Plant response rating, Sugarbeets” value (sugar beet; [2]) was 0. The “Sugarbeets plant response rating (0 to 10 scale)” value (sugar beet; Preemergence, Rate 125 g/ha) was 1, the “Sugarbeets plant response rating” value (sugar beet; Preemergence, Rate 250 g/ha) was 3 and the “Sugarbeets plant response rating” value (sugar beet; Preemergence, Rate 500 g/ha) was 3.
